Laboratory results: PMC7531004, “Discovery of gramicidin A analogues with altered activities by multidimensional screening of a one-bead-one-compound library” (Nature Communications, 2020)
Where a SMILES comes first, the peptide text is derived from it. [ ]: non-standard residue; d: D form. The star is where a group is joined. NHCH2CH2OH = OCCN*; For = O=C*

Legend:
[1] = H+/Na+ transport assay of bead-derived peptides (one-point); format: biochemical; design: key: relative activity; mean of two control wells = 1.00; details: bead-derived peptide solution, EYPC/EYPG LUVs;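 also: relative to parent gramicidin A activity set to 1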
Summary of the method: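 H+/Na+ transport is monitored through pyranine fluorescence in freshly extruded LUVs after a 30-min room-temperature vortex with each library peptide at a single concentration. Signals are normalized to detergent (Triton X-100) and untreated controls.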

[2] = cell viability/%
Summary of the method: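 First, library peptide stocks are diluted 250-fold in RPMI1640 with 10% heat-inactivated FBS. Next, they are mixed with P388 cells to give 1 × 10^4 cells/mL and incubated 92 h at 37 °C, 5% CO2. Finally, viability (%) is scored by WST-1 absorbance at 415 nm.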

[3] = system: Streptococcus pyogenes SSI-9; experiment: Antibacterial activity assay of bead-derived peptides (three concentrations); format: cell-based; design: key: +++: inhibition by the 640-fold diluted peptide solution; ++: inhibition by the 160-fold diluted solution; +: inhibition by the 40-fold diluted solution; -: no inhibition; details: S. pyogenes, bead-derived peptide solution, three concentrations
Summary of the method: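 Bead-derived library peptide stocks in DMSO were tested undiluted and after 4- and 16-fold DMSO dilution against S. pyogenes SSI-9 (2 × 10^5 CFU/well) in cation-adjusted Mueller Hinton Broth with 5% laked horse blood. After 18 h at 37 °C, wells were scored for precipitation of grown cells.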

SMILES: CC(C)C[C@@H](NC(=O)[C@H](C)NC(=O)CNC(=O)[C@@H](NC=O)C(C)C)C(=O)N[C@@H](C)C(=O)N[C@H](CC(C)C)C(=O)N[C@H](C(=O)N[C@@H](C(=O)N[C@@H](Cc1c[nH]c2ccccc12)C(=O)N[C@@H](C(=O)N[C@@H](Cc1c[nH]c2ccccc12)C(=O)N[C@@H](C(=O)N[C@@H](Cc1c[nH]c2ccccc12)C(=O)N[C@@H](C(=O)N[C@@H](Cc1c[nH]c2ccccc12)C(=O)NCCO)[C@H](C)O)C(C)C)C(C)C)C(C)C)C(C)C [compound 2793] (For-VGA[dL]A[dL]V[dV]W[dV]W[dV]W[dT]W-NHCH2CH2OH)
- H+/Na+ transport activity normalized against the value of 1 (1.00) [1]: 1.08
- viability [2]: 84.6%
- antibacterial activity [3]: -

SMILES: CC(C)C[C@@H](NC(=O)[C@H](C)NC(=O)CNC(=O)[C@@H](NC=O)C(C)C)C(=O)N[C@@H](C)C(=O)N[C@@H](C(=O)N[C@H](C(=O)N[C@@H](C(=O)N[C@@H](Cc1c[nH]c2ccccc12)C(=O)N[C@@H](C(=O)N[C@@H](Cc1c[nH]c2ccccc12)C(=O)N[C@H](CC(C)C)C(=O)N[C@@H](Cc1c[nH]c2ccccc12)C(=O)N[C@H](CC(C)C)C(=O)N[C@@H](Cc1c[nH]c2ccccc12)C(=O)NCCO)[C@H](C)O)C(C)C)C(C)C)C(C)C [compound 10674] (For-VGA[dL]A[dV]V[dV]W[dT]W[dL]W[dL]W-NHCH2CH2OH)
- H+/Na+ transport activity normalized against the value of 1 (1.00) [1]: 1.08
- viability [2]: 87.3%
- antibacterial activity [3]: +

SMILES: CC(C)C[C@@H](NC(=O)[C@H](Cc1c[nH]c2ccccc12)NC(=O)[C@H](NC(=O)[C@@H](NC(=O)[C@H](NC(=O)[C@H](C)NC(=O)[C@H](NC(=O)[C@H](C)NC(=O)CNC(=O)[C@@H](NC=O)C(C)C)C(C)C)[C@H](C)O)C(C)C)C(C)C)C(=O)N[C@@H](Cc1c[nH]c2ccccc12)C(=O)N[C@H](CC(C)C)C(=O)N[C@@H](Cc1c[nH]c2ccccc12)C(=O)N[C@@H](C(=O)N[C@@H](Cc1c[nH]c2ccccc12)C(=O)NCCO)C(C)C [compound 8141] (For-VGA[dV]A[dT]V[dV]W[dL]W[dL]W[dV]W-NHCH2CH2OH)
- H+/Na+ transport activity normalized against the value of 1 (1.00) [1]: 1.03
- viability [2]: 100%
- antibacterial activity [3]: -

SMILES: CC(C)C[C@@H](NC(=O)[C@H](C)NC(=O)CNC(=O)[C@@H](NC=O)C(C)C)C(=O)N[C@@H](C)C(=O)N[C@@H](C(=O)N[C@H](C(=O)N[C@@H](C(=O)N[C@@H](Cc1c[nH]c2ccccc12)C(=O)N[C@H](CC(C)C)C(=O)N[C@@H](Cc1c[nH]c2ccccc12)C(=O)N[C@H](CC(C)C)C(=O)N[C@@H](Cc1c[nH]c2ccccc12)C(=O)N[C@@H](C(=O)N[C@@H](Cc1c[nH]c2ccccc12)C(=O)NCCO)[C@H](C)O)C(C)C)C(C)C)[C@H](C)O [compound 6873] (For-VGA[dL]A[dT]V[dV]W[dL]W[dL]W[dT]W-NHCH2CH2OH)
- H+/Na+ transport activity normalized against the value of 1 (1.00) [1]: 1.15
- viability [2]: 100%
- antibacterial activity [3]: -

SMILES: CC(C)C[C@@H](NC(=O)[C@H](C)NC(=O)[C@H](NC(=O)[C@H](C)NC(=O)CNC(=O)[C@@H](NC=O)C(C)C)[C@H](C)O)C(=O)N[C@H](C(=O)N[C@@H](C(=O)N[C@@H](Cc1c[nH]c2ccccc12)C(=O)N[C@@H](C(=O)N[C@@H](Cc1c[nH]c2ccccc12)C(=O)N[C@H](CC(C)C)C(=O)N[C@@H](Cc1c[nH]c2ccccc12)C(=O)N[C@@H](C(=O)N[C@@H](Cc1c[nH]c2ccccc12)C(=O)NCCO)C(C)C)[C@H](C)O)C(C)C)C(C)C [compound 10338] (For-VGA[dT]A[dL]V[dV]W[dT]W[dL]W[dV]W-NHCH2CH2OH)
- H+/Na+ transport activity normalized against the value of 1 (1.00) [1]: 1.01
- viability [2]: 100%
- antibacterial activity [3]: -
